Legend:
[1] = In vitro percent inhibition against aggrecanase at the concentration of 1 uM
[2] = target: T1, Interstitial collagenase (Homo sapiens, UniProt P03956); assay: In vitro binding affinity against matrix metalloprotease 1
T1 sequence (P03956 whole entry): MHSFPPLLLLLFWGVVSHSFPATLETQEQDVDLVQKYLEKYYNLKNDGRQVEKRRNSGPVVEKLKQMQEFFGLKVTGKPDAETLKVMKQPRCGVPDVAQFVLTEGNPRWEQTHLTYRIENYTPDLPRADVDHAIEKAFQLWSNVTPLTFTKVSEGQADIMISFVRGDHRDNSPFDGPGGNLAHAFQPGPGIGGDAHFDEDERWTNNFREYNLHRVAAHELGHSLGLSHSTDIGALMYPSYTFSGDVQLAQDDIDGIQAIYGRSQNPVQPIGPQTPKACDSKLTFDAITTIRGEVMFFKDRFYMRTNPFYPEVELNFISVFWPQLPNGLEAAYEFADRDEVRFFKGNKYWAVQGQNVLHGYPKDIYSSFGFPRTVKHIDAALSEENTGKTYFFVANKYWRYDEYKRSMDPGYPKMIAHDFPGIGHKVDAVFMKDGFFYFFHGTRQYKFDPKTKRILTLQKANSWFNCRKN

[3] = target: Disintegrin and metalloproteinase domain-containing protein 17 (Homo sapiens, UniProt P78536); assay: In vitro inhibitory concentration against human tumor necrosis factor-alpha converting enzyme
Disintegrin and metalloproteinase domain-containing protein 17, sequence (P78536 whole entry, the tested form may be a part): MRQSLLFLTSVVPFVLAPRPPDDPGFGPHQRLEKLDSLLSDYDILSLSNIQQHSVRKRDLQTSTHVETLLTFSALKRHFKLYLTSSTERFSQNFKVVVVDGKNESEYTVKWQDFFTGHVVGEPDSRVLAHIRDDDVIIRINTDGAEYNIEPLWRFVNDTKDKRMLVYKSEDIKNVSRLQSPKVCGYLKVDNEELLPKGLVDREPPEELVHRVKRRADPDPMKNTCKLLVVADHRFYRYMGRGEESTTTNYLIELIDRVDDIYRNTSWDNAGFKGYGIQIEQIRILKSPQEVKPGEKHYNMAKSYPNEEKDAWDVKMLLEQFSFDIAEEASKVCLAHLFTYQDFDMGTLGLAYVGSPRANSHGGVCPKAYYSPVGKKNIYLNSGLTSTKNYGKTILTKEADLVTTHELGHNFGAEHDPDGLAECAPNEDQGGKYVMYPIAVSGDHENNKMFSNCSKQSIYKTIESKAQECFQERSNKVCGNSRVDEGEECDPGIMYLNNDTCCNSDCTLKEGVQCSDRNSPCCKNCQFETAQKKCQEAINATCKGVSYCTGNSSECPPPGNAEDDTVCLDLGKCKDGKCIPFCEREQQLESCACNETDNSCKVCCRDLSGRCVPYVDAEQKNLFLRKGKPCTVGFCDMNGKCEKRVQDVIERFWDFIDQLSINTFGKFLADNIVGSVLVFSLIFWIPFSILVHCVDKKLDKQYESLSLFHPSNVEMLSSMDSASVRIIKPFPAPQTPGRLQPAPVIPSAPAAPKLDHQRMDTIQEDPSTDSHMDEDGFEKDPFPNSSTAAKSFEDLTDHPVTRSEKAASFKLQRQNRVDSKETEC

[4] = target: Matrix metalloproteinase-9 (Homo sapiens, UniProt P14780); assay: In vitro binding affinity against matrix metalloprotease 9
Matrix metalloproteinase-9, sequence (P14780 whole entry): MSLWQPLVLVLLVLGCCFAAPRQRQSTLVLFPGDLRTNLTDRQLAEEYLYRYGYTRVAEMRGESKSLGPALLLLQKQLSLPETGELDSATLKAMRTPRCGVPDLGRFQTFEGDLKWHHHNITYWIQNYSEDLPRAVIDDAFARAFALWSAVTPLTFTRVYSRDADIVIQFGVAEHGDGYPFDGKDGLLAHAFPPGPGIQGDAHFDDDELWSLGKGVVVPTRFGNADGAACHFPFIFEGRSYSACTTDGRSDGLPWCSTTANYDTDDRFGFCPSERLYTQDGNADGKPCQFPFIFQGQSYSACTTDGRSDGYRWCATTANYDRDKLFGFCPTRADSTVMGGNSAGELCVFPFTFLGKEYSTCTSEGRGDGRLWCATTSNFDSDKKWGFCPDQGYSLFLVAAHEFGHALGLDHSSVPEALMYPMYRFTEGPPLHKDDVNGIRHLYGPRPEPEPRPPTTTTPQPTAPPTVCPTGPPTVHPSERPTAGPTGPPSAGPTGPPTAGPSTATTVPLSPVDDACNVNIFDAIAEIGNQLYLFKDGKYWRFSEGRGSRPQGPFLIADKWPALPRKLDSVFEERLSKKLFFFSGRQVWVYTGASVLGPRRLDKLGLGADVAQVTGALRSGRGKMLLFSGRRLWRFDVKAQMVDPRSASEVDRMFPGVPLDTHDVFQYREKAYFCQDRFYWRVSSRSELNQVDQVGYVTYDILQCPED

[5] = target: 72 kDa type IV collagenase (Homo sapiens, UniProt P08253); assay: In vitro binding affinity against matrix metalloprotease 2
72 kDa type IV collagenase, sequence (P08253 whole entry): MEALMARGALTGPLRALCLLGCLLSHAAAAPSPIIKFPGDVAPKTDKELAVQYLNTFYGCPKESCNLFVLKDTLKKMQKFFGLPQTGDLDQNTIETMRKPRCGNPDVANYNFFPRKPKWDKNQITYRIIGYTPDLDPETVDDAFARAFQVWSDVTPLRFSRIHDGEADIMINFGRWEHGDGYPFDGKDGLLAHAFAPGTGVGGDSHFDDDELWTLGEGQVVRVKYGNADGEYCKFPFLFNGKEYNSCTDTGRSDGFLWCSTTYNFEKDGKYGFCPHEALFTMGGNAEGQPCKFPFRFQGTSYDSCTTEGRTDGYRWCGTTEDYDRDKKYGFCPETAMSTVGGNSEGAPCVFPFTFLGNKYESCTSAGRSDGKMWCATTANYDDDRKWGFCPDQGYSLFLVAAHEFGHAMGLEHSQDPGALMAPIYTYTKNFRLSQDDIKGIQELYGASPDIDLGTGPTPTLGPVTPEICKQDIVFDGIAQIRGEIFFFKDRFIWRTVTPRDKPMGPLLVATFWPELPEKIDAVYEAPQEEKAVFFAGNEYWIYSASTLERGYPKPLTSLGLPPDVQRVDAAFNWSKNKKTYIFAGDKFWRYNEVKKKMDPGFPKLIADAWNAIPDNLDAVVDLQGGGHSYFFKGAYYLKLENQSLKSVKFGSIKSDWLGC

[6] = target: Collagenase 3 (Homo sapiens, UniProt P45452); assay: In vitro binding affinity against matrix metalloprotease 13

| SMILES | inhibition [1] [%] | Ki [2] [nM] | IC50 [3] [nM] | Ki [4] [nM] | Ki [5] [nM] | Ki [6] [nM] |
| --- | --- | --- | --- | --- | --- | --- |
| Cc1cc(COc2ccc(C3(N4CCCCC4)C(=O)NC(=O)NC3=O)cc2)c2ccccc2n1 | 0 | > 4950 | 855 | > 2130 | > 3330 | > 5020 |
| Cc1cc(COc2ccc(C3(N4CCN(C(=O)C(C)(C)C)CC4)C(=O)NC(=O)NC3=O)cc2)c2ccccc2n1 | 0 | > 4950 | 5400 | > 2130 | > 3330 | > 5020 |
| Cc1cc(COc2ccc(C3(N4CCOCC4)C(=O)NC(=O)NC3=O)cc2)c2ccccc2n1 | 1 | > 4950 | 535 | > 2130 | > 3330 | > 5020 |
| Cc1cc(COc2ccc(C3(N4CCN(CCCc5ccccc5)CC4)C(=O)NC(=O)NC3=O)cc2)c2ccccc2n1 | 12 | > 4950 | 110 | 2040 | 3100 | 5020 |
| Cc1cc(COc2ccc(C3(N4CCN(C)CC4)C(=O)NC(=O)NC3=O)cc2)c2ccccc2n1 | 37 | > 4950 | 91 | > 2130 | > 3330 | > 5020 |
| Cc1cc(COc2ccc(C3(N4CCN(S(C)(=O)=O)CC4)C(=O)NC(=O)NC3=O)cc2)c2ccccc2n1 | 5 | > 4950 | 275 | > 2130 | > 3330 | > 5020 |
| Cc1cc(COc2ccc3cc(C4(C)C(=O)NC(=O)NC4=O)ccc3c2)c2ccccc2n1 | 1 |  | > 100000 |  | 3330 |  |
| CC1(c2ccc(O)cc2)C(=O)NC(=O)NC1=O | 0 | > 4950 | > 100000 | 850 | 2530 | > 5020 |
| Cc1cc(COc2ccc(C3(N4CCN(C(=O)OC(C)(C)C)CC4)C(=O)NC(=O)NC3=O)cc2)c2ccccc2n1 | 10 | > 4950 | 160 | > 2130 | > 3330 | > 5020 |
| CC1(c2ccc(OCc3ccccc3)cc2)C(=O)NC(=O)NC1=O | 0 | > 4950 | > 100000 | > 2130 | 600 | 4020 |
| CC1(c2ccc(Oc3ccccc3)cc2)C(=O)NC(=O)NC1=O |  |  |  | 52 | 80 | 65 |
| CCCCCCN1CCN(C2(c3ccc(OCc4cc(C)nc5ccccc45)cc3)C(=O)NC(=O)NC2=O)CC1 | 12 | > 4950 | 81 | > 2130 | > 3330 | > 5020 |
| CC(=O)c1ccc(N2CCN(C3(c4ccc(OCc5cc(C)nc6ccccc56)cc4)C(=O)NC(=O)NC3=O)CC2)cc1 | 8 | > 4950 | 620 | > 2130 | > 3330 | > 5020 |
| Cc1cc(COc2ccc(C3(N4CCN(C(C)C)CC4)C(=O)NC(=O)NC3=O)cc2)c2ccccc2n1 | 0 | > 4950 | 96 | > 2130 | > 3330 | > 5020 |
| Cc1cc(COc2ccc(C3(N4CCNCC4)C(=O)NC(=O)NC3=O)cc2)c2ccccc2n1 | 0 | > 4950 | 1100 | > 2130 | > 3330 | > 5020 |
| Cc1cc(COc2ccc(C3(N4CCN(CC(C)(C)C)CC4)C(=O)NC(=O)NC3=O)cc2)c2ccccc2n1 | 10 | > 4950 | 160 | > 2130 | > 3330 | > 5020 |
| Cc1cc(COc2ccc(C3(C)C(=O)NC(=O)NC3=O)cc2)c2ccccc2n1 | 0 | > 4950 | 1030 | > 2130 | > 3330 | 5020 |
| Cc1cc(COc2ccc(C3(N4CCN(CCc5ccccc5)CC4)C(=O)NC(=O)NC3=O)cc2)c2ccccc2n1 | 38 | > 4950 | 84 | 85 | 83 | 95 |
| Cc1cc(COc2ccc(C3(N4CCN(Cc5ccccc5)CC4)C(=O)NC(=O)NC3=O)cc2)c2ccccc2n1 | 5 | > 4950 | 195 | > 2130 | > 3330 | > 5020 |
| Cc1cc(COc2ccc(C3(N4CCN(c5ccc([N+](=O)[O-])cc5)CC4)C(=O)NC(=O)NC3=O)cc2)c2ccccc2n1 | 0 | > 4350 | 2800 | 138 | 116 | 356 |
